Measured values taken from US9250231B2, “Method for selecting mevalonate synthesis modulators using cells derived from human pluripotent cells” (Centre d'Etude des Cellules Souches, priority 2010, dated 2016).

Key:
[1] = system: cells derived from human embryonic stem cells SA01; experiment: Growth capacity (maximum number of cells before senescence) of MSC type cells cultivated with or without FGF2 and AA2P; type: cell-based; conditions: versus control FCS20%
Protocol: (§1) The role of FGF2 and of ascorbic acid 2-phosphate on the growth capacities of the isolated cells according to the method of the invention was analyzed on cells derived from human embryonic stem cells SA01. The cells are cultivated in the presence of 20% fetal calf serum (control condition) and in the presence or in the absence of FGF2 and of ascorbic acid 2-phosphate (AA2P).

SSEA4 = experiment: Flow cytometry of SSEA4 on MSC type cells derived from hES SA01; type: cell-based, human; conditions: added to control FCS20%; FGF2 10 ng/ml, AA2P 1 mM; control 7
Protocol: as §1
The presence of SSEA4 on cells cultivated under these different conditions were analyzed by flow cytometry by using a specific antibody directed against SSEA4.

[2] = system: <<MSC>> SA01 cells derived from hES cells (SA01); experiment: Comparative toxicity of statins in 384-well plates, Cell Titer Glow, with and without mevalonate; type: cell-based, human; conditions: for cell viability as percentage of the result without any treatment, With Mevalonate / cell viability as percentage of the result without any treatment, Without Mevalonate: human, 72 h
Protocol: For this experiment, the differentiated <<MSC>> SA01 cells derived from hES cells (SA01) were tested in 384-well plates by using a distribution robot and cell viability was measured by Cell Titer Glow after 72 hours of cultivation.

[3] = system: <<MSC>> WT cells derived from hES cells; experiment: Toxicity of simvastatin in 384-well multiwells, Cell Titer Glow; type: cell-based, human; conditions: 72 hours, 20% fetal calf serum, 2,000 cells per well, DMSO 0.2% 987206
Description: Determination of the number of cells by the ATP amount is therefore possible. This approach allows automated readout of the number of cells. Similar results are obtained by using traces of mitochondrial activity. Differentiated cells of the MSC type, derived from hES cells, <<MSC>> WT, were sown on 384 multiwells gelatinized beforehand by using a distribution robot of the Bravo type, at the concentration of 2,000 cells per well.

[4] = system: MSC cells derived from hES human cells SA01; experiment: Prestwick bank screening with and without mevalonate, Cell Titer Glow; type: cell-based; conditions: 2.5 μM, 72 h, mevalonate 2 mM, 96 wells, 20% fetal calf serum

Compound | increase of the amount of accumulated maximum cells [1] | Average fluorescence intensity (SSEA4) (SSEA4) | cell viability as percentage of the result without any treatment, With Mevalonate [2] | cell viability as percentage of the result without any treatment, Without Mevalonate [2] | other results
O=C1O[C@H]([C@@H](O)CO)C(O)=C1OP(=O)(O)O [AA2P, Ascorbic Acid 2-Phosphate] | less than 6 log factor | 7 |  |  | 
CC(C)n1c(/C=C/C(O)CC(O)CC(=O)O)c(-c2ccc(F)cc2)c2ccccc21 (centres unmarked) [Fluvostatin] |  |  | 104% | 32.8% | comparative toxicity of statins [2]: more toxic than simvastatin
CCC(C)(C)C(=O)O[C@H]1C[C@@H](C)C=C2C=C[C@H](C)[C@H](CC[C@@H]3C[C@@H](O)CC(=O)O3)[C@H]21 [Simvastatin] |  |  | 98.3% | 48.7% | amount of cells by Cell Titer Glow, Statin 2 μM [3]: 474583
FGF2: growth factor from the FGF family added to the culture medium | less than 5 log factor | 10 |  |  | 
Mevinolin |  |  |  |  | selected in screening 1 (toxicity of more than 35% in the absence, less than 20% in the presence of mevalonate) [4]: isolated
